{
  "source": "patent US10689377B2",
  "about": "(Mirati Therapeutics, Inc., priority 2017, dated 2020)",
  "data": [
    {"target": "KRas G12C (Homo sapiens, UniProt P01116, G12C)", "sequence (P01116 1-188 isoform P01116-2 G12C)": "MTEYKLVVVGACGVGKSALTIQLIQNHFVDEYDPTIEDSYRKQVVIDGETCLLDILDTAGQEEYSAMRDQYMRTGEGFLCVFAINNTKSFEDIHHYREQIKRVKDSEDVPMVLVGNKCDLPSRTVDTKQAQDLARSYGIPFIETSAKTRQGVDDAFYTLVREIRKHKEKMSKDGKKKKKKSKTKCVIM", "test": "Cellular inhibition of KRas G12C measured by Phospho-ERK in NCI-H358 cells", "assay_type": "cell-based", "details": "pERK(Thr202/Tyr204) normalized with GAPDH, NCI-H358 cells, 3 hours; read-out: IC50", "procedure,_shortened": "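Readout is pERK(Thr202/Tyr204) immunofluorescence normalized to GAPDH, expressed as percent of DMSO control and fitted with a 4-parameter curve for IC50. Attached NCI-H358 cells received compound for 3 hours in 0.5% DMSO, followed by fixation and methanol permeabilization.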", "units": {"IC50": "nM"}, "values": [
      {"compound": "C=CC(=O)N1CCN(c2nc(OC[C@@H]3CCCCN3C)nc3c2CCN(c2cccc4ccccc24)C3)C[C@@H]1CC#N", "note": "[Example 377, 2-((S)-1-acryloyl-4-(2-(((S)-1-methylpiperidin-2-yl)methoxy)-7-(naphthalen-1-yl)-5,6,7,8-tetrahydropyrido[3,4-d]pyrimidin-4-yl)piperazin-2-yl)acetonitrile]", "IC50": "0.1 to 1000"},
      {"compound": "C=CC(=O)N1C[C@@H](C)N(c2nc(OC[C@@H]3CCCN3C)nc3c2CCN(c2cccc4ccccc24)C3)C[C@@H]1CC#N", "note": "[Example 378, 2-((2S,5R)-1-acryloyl-5-methyl-4-(2-(((S)-1-methylpyrrolidin-2-yl)methoxy)-7-(naphthalen-1-yl)-5,6,7,8-tetrahydropyrido[3,4-d]pyrimidin-4-yl)piperazin-2-yl)acetonitrile]", "IC50": "0.1 to 1000"},
      {"compound": "C=CC(=O)N1CCN(c2nc(OC[C@@H]3CCCN3C)nc3c2CCN(c2ccccc2C(F)(F)F)C3)C[C@@H]1CC#N", "note": "[Example 379, 2-((S)-1-acryloyl-4-(2-(((S)-1-methylpyrrolidin-2-yl)methoxy)-7-(2-(trifluoromethyl)phenyl)-5,6,7,8-tetrahydropyrido[3,4-d]pyrimidin-4-yl)piperazin-2-yl)acetonitrile]", "IC50": "0.1 to 1000"},
      {"compound": "C=CC(=O)N1CCN(c2nc(OC[C@@H]3CCCN3CCOC)nc3c2CCN(c2cccc4ccccc24)C3)CC1CC#N", "note": "(stereo partly drawn) [Example 380, 2-(1-acryloyl-4-(2-(((S)-1-(2-methoxyethyl)pyrrolidin-2-yl)methoxy)-7-(naphthalen-1-yl)-5,6,7,8-tetrahydropyrido[3,4-d]pyrimidin-4-yl)piperazin-2-yl)acetonitrile]", "IC50": "0.1 to 1000"},
      {"compound": "C=CC(=O)N1CCN(c2nc(OC[C@@H]3C[C@@H](OC)CN3C)nc3c2CCN(c2cccc4ccccc24)C3)CC1CC#N", "note": "(stereo partly drawn) [Example 381, 2-(1-acryloyl-4-(2-(((2S,4R)-4-methoxy-1-methylpyrrolidin-2-yl)methoxy)-7-(naphthalen-1-yl)-5,6,7,8-tetrahydropyrido[3,4-d]pyrimidin-4-yl)piperazin-2-yl)acetonitrile]", "IC50": "0.1 to 1000"},
      {"compound": "C=CC(=O)N1CCN(c2nc(OC[C@@H]3CCCN3C)nc3c2CCN(c2cncc(F)c2C(F)(F)F)C3)C[C@@H]1CC#N", "note": "[Example 383, 2-((S)-1-acryloyl-4-(7-(5-fluoro-4-(trifluoromethyl)pyridin-3-yl)-2-(((S)-1-methylpyrrolidin-2-yl)methoxy)-5,6,7,8-tetrahydropyrido[3,4-d]pyrimidin-4-yl)piperazin-2-yl)acetonitrile]", "IC50": "0.1 to 1000"},
      {"compound": "C=CC(=O)N1CCN(c2nc(OC[C@@H]3C[C@@H](F)CN3C)nc3c2CCN(c2cncc(F)c2C(F)(F)F)C3)C[C@@H]1CC#N", "note": "[Example 384, 2-((S)-1-acryloyl-4-(2-(((2S,4R)-4-fluoro-1-methylpyrrolidin-2-yl)methoxy)-7-(5-fluoro-4-(trifluoromethyl)pyridin-3-yl)-5,6,7,8-tetrahydropyrido[3,4-d]pyrimidin-4-yl)piperazin-2-yl)acetonitrile]", "IC50": "0.1 to 1000"},
      {"compound": "C=CC(=O)N1CCN(c2nc(OC[C@@H]3CCCN3C)nc3c2CCN(c2cncc(Cl)c2C(F)(F)F)C3)C[C@@H]1CC#N", "note": "[Example 385, 2-((S)-1-acryloyl-4-(7-(5-chloro-4-(trifluoromethyl)pyridin-3-yl)-2-(((S)-1-methylpyrrolidin-2-yl)methoxy)-5,6,7,8-tetrahydropyrido[3,4-d]pyrimidin-4-yl)piperazin-2-yl)acetonitrile]", "IC50": "0.1 to 1000"},
      {"compound": "C=CC(=O)N1CCN(c2nc(OC[C@@H]3C[C@@H](F)CN3C(C)C)nc3c2CCN(c2cncc(F)c2C(F)(F)F)C3)C[C@@H]1CC#N", "note": "[Example 386, 2-((S)-1-acryloyl-4-(2-(((2S,4R)-4-fluoro-1-isopropylpyrrolidin-2-yl)methoxy)-7-(5-fluoro-4-(trifluoromethyl)pyridin-3-yl)-5,6,7,8-tetrahydropyrido[3,4-d]pyrimidin-4-yl)piperazin-2-yl)acetonitrile]", "IC50": "0.1 to 1000"},
      {"compound": "C=CC(=O)N1CCN(c2nc(OC[C@@H]3CCCN3C)nc3c2CCN(c2cncc(Cl)c2C)C3)C[C@@H]1CC#N", "note": "[Example 387, 2-((S)-1-acryloyl-4-(7-(5-chloro-4-methylpyridin-3-yl)-2-(((S)-1-methylpyrrolidin-2-yl)methoxy)-5,6,7,8-tetrahydropyrido[3,4-d]pyrimidin-4-yl)piperazin-2-yl)acetonitrile]", "IC50": "0.1 to 1000"},
      {"compound": "C=CC(=O)N1CCN(c2nc(OC[C@@H]3CCCN3C)nc3c2CCN(c2cccc(F)c2C)C3)C[C@@H]1CC#N", "note": "[Example 388, 2-((S)-1-acryloyl-4-(7-(3-fluoro-2-methylphenyl)-2-(((S)-1-methylpyrrolidin-2-yl)methoxy)-5,6,7,8-tetrahydropyrido[3,4-d]pyrimidin-4-yl)piperazin-2-yl)acetonitrile]", "IC50": "0.1 to 1000"},
      {"compound": "CC#CC(=O)N1CCN(c2nc(OC[C@@H]3CCCN3C)nc3c2CCN(c2cccc(C)c2C)C3)C[C@@H]1CC#N", "note": "[Example 389, 2-((S)-1-(but-2-ynoyl)-4-(7-(2,3-dimethylphenyl)-2-(((S)-1-methylpyrrolidin-2-yl)methoxy)-5,6,7,8-tetrahydropyrido[3,4-d]pyrimidin-4-yl)piperazin-2-yl)acetonitrile]", "IC50": "> 1000"},
      {"compound": "C=CC(=O)N1CCN(c2nc(OC[C@@H]3[C@@H](O)CCN3C)nc3c2CCN(c2cccc4ccccc24)C3)C[C@@H]1CC#N", "note": "[Example 390, 2-((S)-1-acryloyl-4-(2-(((2R,3S)-3-hydroxy-1-methylpyrrolidin-2-yl)methoxy)-7-(naphthalen-1-yl)-5,6,7,8-tetrahydropyrido[3,4-d]pyrimidin-4-yl)piperazin-2-yl)acetonitrile]", "IC50": "0.1 to 1000"},
      {"compound": "CC#CC(=O)N1CCN(c2nc(OC[C@@H]3CCCN3C)nc3c2CCN(c2cccc4cccc(Cl)c24)C3)C[C@@H]1CC#N", "note": "[Example 391, 2-((S)-1-(but-2-ynoyl)-4-(7-(8-chloronaphthalen-1-yl)-2-(((S)-1-methylpyrrolidin-2-yl)methoxy)-5,6,7,8-tetrahydropyrido[3,4-d]pyrimidin-4-yl)piperazin-2-yl)acetonitrile]", "IC50": "0.1 to 1000"},
      {"compound": "C=CC(=O)N1CCN(c2nc(OC[C@@H]3CCCN3C)nc3c2CCN(c2cccc(C)c2C)C3)C[C@@H]1CC#N", "note": "[Example 394, 2-((S)-1-acryloyl-4-(7-(2,3-dimethylphenyl)-2-(((S)-1-methylpyrrolidin-2-yl)methoxy)-5,6,7,8-tetrahydropyrido[3,4-d]pyrimidin-4-yl)piperazin-2-yl)acetonitrile]", "IC50": "0.1 to 1000"},
      {"compound": "C=CC(=O)N1CCN(c2nc(OC[C@]3(C)CCCN3C)nc3c2CCN(c2cccc4ccccc24)C3)CC1CC#N", "note": "(stereo partly drawn) [Example 395, 2-(1-acryloyl-4-(2-(((S)-1,2-dimethylpyrrolidin-2-yl)methoxy)-7-(naphthalen-1-yl)-5,6,7,8-tetrahydropyrido[3,4-d]pyrimidin-4-yl)piperazin-2-yl)acetonitrile]", "IC50": "0.1 to 1000"},
      {"compound": "C=CC(=O)N1CCN(c2nc(OC[C@@H]3CCCN3CC3CC3)nc3c2CCN(c2cccc4ccccc24)C3)CC1CC#N", "note": "(stereo partly drawn) [Example 396, 2-(1-acryloyl-4-(2-(((S)-1-(cyclopropylmethyl)pyrrolidin-2-yl)methoxy)-7-(naphthalen-1-yl)-5,6,7,8-tetrahydropyrido[3,4-d]pyrimidin-4-yl)piperazin-2-yl)acetonitrile]", "IC50": "0.1 to 1000"},
      {"compound": "C=CC(=O)N1CCN(c2nc(OCC(C)(C)N(C)C)nc3c2CCN(c2cccc4ccccc24)C3)CC1CC#N", "note": "(stereo not drawn) [Example 397, 2-(1-acryloyl-4-(2-(2-(dimethylamino)-2-methylpropoxy)-7-(naphthalen-1-yl)-5,6,7,8-tetrahydropyrido[3,4-d]pyrimidin-4-yl)piperazin-2-yl)acetonitrile]", "IC50": "0.1 to 1000"},
      {"compound": "C=CC(=O)N1CCN(c2nc(OC[C@@H]3CCCN3CC(=O)N(C)C)nc3c2CCN(c2cccc4ccccc24)C3)CC1CC#N", "note": "(stereo partly drawn) [Example 398, 2-((2S)-2-(((4-(4-acryloyl-3-(cyanomethyl)piperazin-1-yl)-7-(naphthalen-1-yl)-5,6,7,8-tetrahydropyrido[3,4-d]pyrimidin-2-yl)oxy)methyl)pyrrolidin-1-yl)-N,N-dimethylacetamide]", "IC50": "0.1 to 1000"},
      {"compound": "C=CC(=O)N1CCN(c2nc(OC[C@@H]3CCCN3CC)nc3c2CCN(c2cccc4ccccc24)C3)C[C@@H]1CC#N", "note": "[Example 400, 2-((S)-1-acryloyl-4-(2-(((S)-1-ethylpyrrolidin-2-yl)methoxy)-7-(naphthalen-1-yl)-5,6,7,8-tetrahydropyrido[3,4-d]pyrimidin-4-yl)piperazin-2-yl)acetonitrile]", "IC50": "0.1 to 1000"},
      {"compound": "CCN1CCC[C@H]1COc1nc2c(c(N3CCN(C(=O)/C=C/CN(C)C)[C@@H](CC#N)C3)n1)CCN(c1cccc3ccccc13)C2", "note": "[Example 401, 2-((S)-1-((E)-4-(dimethylamino)but-2-enoyl)-4-(2-(((S)-1-ethylpyrrolidin-2-yl)methoxy)-7-(naphthalen-1-yl)-5,6,7,8-tetrahydropyrido[3,4-d]pyrimidin-4-yl)piperazin-2-yl)acetonitrile]", "IC50": "0.1 to 1000"},
      {"compound": "C=CC(=O)N1CCN(c2nc(OC[C@@H]3CCCN3CC(=O)N(C)C)nc3c2CCN(c2cccc4ccccc24)C3)C[C@@H]1CC#N", "note": "[Example 402, 2-((S)-2-(((4-((S)-4-acryloyl-3-(cyanomethyl)piperazin-1-yl)-7-(naphthalen-1-yl)-5,6,7,8-tetrahydropyrido[3,4-d]pyrimidin-2-yl)oxy)methyl)pyrrolidin-1-yl)-N,N-dimethylacetamide]", "IC50": "0.1 to 1000"},
      {"compound": "C=CC(=O)N1CCN(c2nc(N3CC[C@H](N(C)C)C3)nc3c2CCN(c2cccc4ccccc24)C3)C[C@@H]1CC#N", "note": "[Example 403]", "IC50": "0.1 to 1000"},
      {"compound": "Cc1cccc(N2CCc3c(nc(OC[C@@H]4CCCN4C)nc3N3CCN(C(=O)/C=C/CN(C)C)[C@@H](CC#N)C3)C2)c1C", "note": "[Example 404, 2-((S)-1-((E)-4-(dimethylamino)but-2-enoyl)-4-(7-(2,3-dimethylphenyl)-2-(((S)-1-methylpyrrolidin-2-yl)methoxy)-5,6,7,8-tetrahydropyrido[3,4-d]pyrimidin-4-yl)piperazin-2-yl)acetonitrile]", "IC50": "0.1 to 1000"}
    ]}
  ]
}
